Measured values reported in ChEMBL document CHEMBL3044763, “Inhibitory Activities of Rhodanine Derivatives on Plant Growth” (Biosci Biotechnol Biochem, 1996).

Legend:
[1] = Toxicity in Mus musculus ddY (mouse) assessed as mortality at 4 mg/kg, ip after 4 days; type: organism-based; set-up: dose 4 mg/kg, route intraperitoneal; settings: in vivo
Daucus carota [2] = assay: Growth inhibition of Daucus carota (carrot) assessed as root growth at 5 x 10^-5 M after 7 days; type: functional
[3] = system: Brassica rapa subsp. oleifera; assay: Growth inhibition of Brassica rapa subsp. oleifera assessed as chlorophyll a level at 3 x 10^-5 M after 7 days; type: functional; set-up: scale not given: the % may be the effect or the level left
[4] = Toxicity in Mus musculus ddY (mouse) assessed as mortality at 7 mg/kg, ip after 5 days; type: organism-based; set-up: dose 7 mg/kg, route intraperitoneal; settings: in vivo
[5] = Toxicity in Mus musculus ddY (mouse) assessed as mortality at 8 mg/kg, ip after 2 days; type: organism-based; set-up: dose 8 mg/kg, route intraperitoneal; settings: in vivo
[6] = Toxicity in Mus musculus ddY (mouse) assessed as mortality at 6 mg/kg, ip after 4 days; type: organism-based; set-up: dose 6 mg/kg, route intraperitoneal; settings: in vivo
[7] = system: Brassica rapa subsp. oleifera; assay: Growth inhibition of Brassica rapa subsp. oleifera assessed as chlorophyll a level at 1 x 10^-4 M after 7 days; type: functional; set-up: scale not given: the % may be the effect or the level left
[8] = system: Brassica rapa subsp. oleifera; assay: Growth inhibition of Brassica rapa subsp. oleifera assessed as total chlorophyll level at 3 x 10^-5 M after 7 days; type: functional; set-up: scale not given: the % may be the effect or the level left
Sesamum indicum [9] = assay: Growth inhibition of Sesamum indicum (sesame) assessed as root growth at 3 x 10^-4 M after 7 days; type: functional
[10] = system: Brassica rapa subsp. oleifera; assay: Growth inhibition of Brassica rapa subsp. oleifera assessed as root growth at 3 x 10^-4 M after 7 days; type: functional
[11] = Toxicity in Mus musculus ddY (mouse) assessed as mortality at 8 mg/kg, ip after 4 days; type: organism-based; set-up: dose 8 mg/kg, route intraperitoneal; settings: in vivo
[12] = Toxicity in Mus musculus ddY (mouse) assessed as mortality at 3 mg/kg, ip after 4 days; type: organism-based; set-up: dose 3 mg/kg, route intraperitoneal; settings: in vivo
Sesamum indicum [13] = assay: Growth inhibition of Sesamum indicum (sesame) assessed as root growth at 3 x 10^-5 M after 7 days; type: functional
[14] = Toxicity in Mus musculus ddY (mouse) assessed as mortality at 8 mg/kg, ip after 7 days; type: organism-based; set-up: dose 8 mg/kg, route intraperitoneal; settings: in vivo
[15] = Toxicity in Mus musculus ddY (mouse) assessed as mortality at 5 mg/kg, ip after 2 days; type: organism-based; set-up: dose 5 mg/kg, route intraperitoneal; settings: in vivo
[16] = Toxicity in Mus musculus ddY (mouse) assessed as mortality at 6 mg/kg, ip after 7 days; type: organism-based; set-up: dose 6 mg/kg, route intraperitoneal; settings: in vivo
[17] = system: Brassica rapa subsp. oleifera; assay: Growth inhibition of Brassica rapa subsp. oleifera assessed as chlorophyll b level at 3 x 10^-5 M after 7 days; type: functional; set-up: scale not given: the % may be the effect or the level left
[18] = Toxicity in Mus musculus ddY (mouse) assessed as mortality at 7 mg/kg, ip after 6 days; type: organism-based; set-up: dose 7 mg/kg, route intraperitoneal; settings: in vivo
[19] = Toxicity in Mus musculus ddY (mouse) assessed as mortality at 4 mg/kg, ip after 7 days; type: organism-based; set-up: dose 4 mg/kg, route intraperitoneal; settings: in vivo
Lactuca sativa = assay: Growth inhibition of Lactuca sativa (lettuce) assessed as root growth at 5 x 10^-5 M after 7 days; type: functional
[20] = Toxicity in Mus musculus ddY (mouse) assessed as mortality at 8 mg/kg, ip after 3 days; type: organism-based; set-up: dose 8 mg/kg, route intraperitoneal; settings: in vivo
[21] = Toxicity in Mus musculus ddY (mouse) assessed as mortality at 3 mg/kg, ip after 1 day; type: organism-based; set-up: dose 3 mg/kg, route intraperitoneal; settings: in vivo
[22] = Toxicity in Mus musculus ddY (mouse) assessed as mortality at 4 mg/kg, ip after 6 days; type: organism-based; set-up: dose 4 mg/kg, route intraperitoneal; settings: in vivo
[23] = system: Brassica rapa subsp. oleifera; assay: Growth inhibition of Brassica rapa subsp. oleifera assessed as chlorophyll b level at 5 x 10^-5 M after 7 days; type: functional; set-up: scale not given: the % may be the effect or the level left
[24] = Toxicity in Mus musculus ddY (mouse) assessed as mortality at 6 mg/kg, ip after 6 days; type: organism-based; set-up: dose 6 mg/kg, route intraperitoneal; settings: in vivo
[25] = system: Brassica rapa subsp. oleifera; assay: Growth inhibition of Brassica rapa subsp. oleifera assessed as total chlorophyll level at 1 x 10^-4 M after 7 days; type: functional; set-up: scale not given: the % may be the effect or the level left
Allium tuberosum [26] = assay: Growth inhibition of Allium tuberosum assessed as root growth at 3 x 10^-5 M after 10 days; type: functional
[27] = Toxicity in Mus musculus ddY (mouse) assessed as mortality at 3 mg/kg, ip after 2 days; type: organism-based; set-up: dose 3 mg/kg, route intraperitoneal; settings: in vivo
[28] = Toxicity in Mus musculus ddY (mouse) assessed as mortality at 7 mg/kg, ip after 7 days; type: organism-based; set-up: dose 7 mg/kg, route intraperitoneal; settings: in vivo
[29] = Toxicity in Mus musculus ddY (mouse) assessed as mortality at 4 mg/kg, ip after 1 day; type: organism-based; set-up: dose 4 mg/kg, route intraperitoneal; settings: in vivo
[30] = Toxicity in Mus musculus ddY (mouse) assessed as mortality at 5 mg/kg, ip after 1 day; type: organism-based; set-up: dose 5 mg/kg, route intraperitoneal; settings: in vivo
[31] = Toxicity in Mus musculus ddY (mouse) assessed as mortality at 5 mg/kg, ip after 3 days; type: organism-based; set-up: dose 5 mg/kg, route intraperitoneal; settings: in vivo
[32] = system: Brassica rapa subsp. oleifera; assay: Growth inhibition of Brassica rapa subsp. oleifera assessed as root growth at 5 x 10^-5 M after 7 days; type: functional
Daucus carota [33] = assay: Growth inhibition of Daucus carota (carrot) assessed as root growth at 3 x 10^-5 M after 7 days; type: functional
[34] = Toxicity in Mus musculus ddY (mouse) assessed as mortality at 6 mg/kg, ip after 2 days; type: organism-based; set-up: dose 6 mg/kg, route intraperitoneal; settings: in vivo
[35] = system: Brassica rapa subsp. oleifera; assay: Growth inhibition of Brassica rapa subsp. oleifera assessed as root growth at 1 x 10^-4 M after 7 days; type: functional
[36] = Toxicity in Mus musculus ddY (mouse) assessed as mortality at 3 mg/kg, ip after 6 days; type: organism-based; set-up: dose 3 mg/kg, route intraperitoneal; settings: in vivo
[37] = Toxicity in Mus musculus ddY (mouse) assessed as mortality at 8 mg/kg, ip after 5 days; type: organism-based; set-up: dose 8 mg/kg, route intraperitoneal; settings: in vivo
Sesamum indicum [38] = assay: Growth inhibition of Sesamum indicum (sesame) assessed as root growth at 1 x 10^-4 M after 7 days; type: functional
[39] = Toxicity in Mus musculus ddY (mouse) assessed as mortality at 3 mg/kg, ip after 5 days; type: organism-based; set-up: dose 3 mg/kg, route intraperitoneal; settings: in vivo
[40] = Toxicity in Mus musculus ddY (mouse) assessed as mortality at 8 mg/kg, ip after 1 day; type: organism-based; set-up: dose 8 mg/kg, route intraperitoneal; settings: in vivo
Echinochloa esculenta = assay: Growth inhibition of Echinochloa esculenta assessed as root growth at 1 x 10^-4 M after 7 days; type: functional
[41] = Toxicity in Mus musculus ddY (mouse) assessed as mortality at 4 mg/kg, ip after 2 days; type: organism-based; set-up: dose 4 mg/kg, route intraperitoneal; settings: in vivo
[42] = Toxicity in Mus musculus ddY (mouse) assessed as mortality at 6 mg/kg, ip after 3 days; type: organism-based; set-up: dose 6 mg/kg, route intraperitoneal; settings: in vivo
[43] = Toxicity in Mus musculus ddY (mouse) assessed as mortality at 6 mg/kg, ip after 5 days; type: organism-based; set-up: dose 6 mg/kg, route intraperitoneal; settings: in vivo
[44] = Toxicity in Mus musculus ddY (mouse) assessed as mortality at 3 mg/kg, ip after 7 days; type: organism-based; set-up: dose 3 mg/kg, route intraperitoneal; settings: in vivo
[45] = Toxicity in Mus musculus ddY (mouse) assessed as mortality at 4 mg/kg, ip after 3 days; type: organism-based; set-up: dose 4 mg/kg, route intraperitoneal; settings: in vivo
[46] = Toxicity in Mus musculus ddY (mouse) assessed as mortality at 6 mg/kg, ip after 1 day; type: organism-based; set-up: dose 6 mg/kg, route intraperitoneal; settings: in vivo
[47] = system: Brassica rapa subsp. oleifera; assay: Growth inhibition of Brassica rapa subsp. oleifera assessed as chlorophyll a level at 5 x 10^-5 M after 7 days; type: functional; set-up: scale not given: the % may be the effect or the level left
[48] = Toxicity in Mus musculus ddY (mouse) assessed as mortality at 7 mg/kg, ip after 4 days; type: organism-based; set-up: dose 7 mg/kg, route intraperitoneal; settings: in vivo
Daucus carota [49] = assay: Growth inhibition of Daucus carota (carrot) assessed as root growth at 1 x 10^-4 M after 7 days; type: functional
Allium tuberosum [50] = assay: Growth inhibition of Allium tuberosum assessed as root growth at 1 x 10^-4 M after 10 days; type: functional

With `NN1C(=O)CSC1=S` [AMINORHODANINE] the mortality at 96 h [1] was 20%, the Activity (Daucus carota [2]) was 10.8 mm and the Activity [3] was 11.07%. It also gave a mortality at 120 h [4] of 80%, a mortality at 48 h [5] of 100% and a mortality at 96 h [6] of 60%. For the same compound, the Activity [7] was 8.05%, the Activity [8] was 15.83% and the Activity (Sesamum indicum [9]) was 0 mm. It also gave an Activity [10] of 3.5 mm, a mortality at 96 h [11] of 100% and a mortality at 96 h [12] of 0%. The Activity (Sesamum indicum [13]) was 9.5 mm, the mortality at 168 h [14] was 100% and the mortality at 48 h [15] was 60%. The mortality at 168 h [16] was 60%, the Activity [17] was 4.78% and the mortality at 144 h [18] was 80%. For the same compound, the mortality at 168 h [19] was 20%, the Activity (Lactuca sativa) was 5.9 mm and the mortality at 72 h [20] was 100%. The mortality at 24 h [21] was 0%, the mortality at 144 h [22] was 20% and the Activity [23] was 4.36%. For the same compound, the mortality at 144 h [24] was 60%, the Activity [25] was 11.85% and the Activity (Allium tuberosum [26]) was 7 mm. The mortality at 48 h [27] was 0%, the mortality at 168 h [28] was 80% and the mortality at 24 h [29] was 20%. The mortality at 24 h [30] was 60%, the mortality at 72 h [31] was 60% and the Root length [32] was 26.8 mm. It also gave an Activity (Daucus carota [33]) of 11.2 mm, a mortality at 48 h [34] of 60% and an Activity [35] of 14.1 mm. For the same compound, the mortality at 144 h [36] was 0%, the mortality at 120 h [37] was 100% and the Activity (Sesamum indicum [38]) was 3.2 mm. For the same compound, the mortality at 120 h [39] was 0%, the mortality at 24 h [40] was 100% and the Activity (Echinochloa esculenta) was 10.8 mm. For the same compound, the mortality at 48 h [41] was 20%, the mortality at 72 h [42] was 60% and the mortality at 120 h [43] was 60%. The mortality at 168 h [44] was 0%, the mortality at 72 h [45] was 20% and the mortality at 24 h [46] was 60%. It also gave an Activity [47] of 9.22%, a mortality at 96 h [48] of 80% and an Activity (Daucus carota [49]) of 2.4 mm. It also gave an Activity (Allium tuberosum [50]) of 5.1 mm.
